# Measurements taken from patent publication US11045411B2, “Process for treating keratin materials using amide, acid or ester c-glycoside derivatives, and cosmetic composition containing same” (L'OREAL, priority 2015, dated 2021).
# “And” between values parts separate entries of the source, which are not always exact repeats. Identical values can stand only once.
# Legend:
# [1] = system: normal human epidermal keratinocytes; experiment: Synthesis of total glycosaminoglycans, [3H]-glucosamine incorporation in normal human epidermal keratinocytes; type: cell-based; conditions: for % relative to control, glucosamine incorporation / Mean value, radioactive glucosamine incorporated: 72 hours; for incorporation of radioactive glucosamine: result in words
# Description: The study is carried out by measuring the incorporation of radioactive glucosamine into the matrix neosynthesized by cultures of normal human epidermal keratinocytes. The incorporation of radioactive [^3H]-glucosamine indicates a specific neosynthesis of total glycosaminoglycans.
# The test is carried out on a culture of normal human epidermal keratinocytes in a 96-well plate and cultured in culture medium for 24 hours:
# Culture medium: Keratinocytes-SFM supplemented with 0.5 ng/ml epidermal growth factor (EGF), 25 μg/ml pituitary extract, 25 μg/ml gentamycin.
# Culture conditions: 37° C.; 5% CO2
# The medium was then replaced with culture medium containing or not containing (control) the compound (I) tested or the references 4-nitrophenyl-B-D-xylopyranoside (tested at 300 μM) and 4-methylumbelliferyl-B-D-xylopyranoside (tested at 54 μM) or the solvent control (DMSO at 0.1%), then the cells were incubated for 72 hours with addition of the [^3H]-glucosamine label for the final 24 hours of incubation.
# The test was carried out with 3 assays for each compound tested, at the concentrations of 1, 10, 100 and 300 μM.
# At the end of the incubation, the glycosaminoglycans were extracted from the cells with a chaotropic buffer. The level of radioactive glucosamine incorporated is measured at the end of the test by adsorption of the anionic molecules on Q-sepharose beads, followed by desorption of the molecules having low and medium anionicity with 6M urea plus 0.2 M NaCl. Once washed, the radioactivity incorporated into the very […] molecules remaining on the support is counted.
# The results were evaluated relative to a control constituted of cells which had not been treated with the compound (I).
# A positive control (TGFβ at 0.25 ng/ml) known to stimulate GAG synthesis was introduced into the test carried as a positive reference.
# GLUT-1 = GLUT-1 expression in normal human keratinocytes by immuno labeling; type: cell-based; conditions: for GLUT-1 expression vs 100% control: 48 hours, n=3; for expression of the GLUT-1 protein: result in words
# Description: Normal human keratinocytes (NHKs) were seeded and cultured in culture medium for 24 hours and then in test medium for a further 24 hours. After incubation, the medium was replaced with test medium containing or not containing (control) the test compounds or the references, and then the cells were incubated for 48 hours. All the experimental conditions were performed in n=3. After incubation, the culture medium was removed and the cells were rinsed, fixed and permeabilized. GLUT-1 expression was determined by immuno labeling.
SMILES,"% relative to control, glucosamine incorporation ([1]; 300 μM)","Mean value, radioactive glucosamine incorporated ([1]; 300 μM)","% relative to control, glucosamine incorporation ([1]; 1 μM)","Mean value, radioactive glucosamine incorporated ([1]; 1 μM)","% relative to control, glucosamine incorporation ([1]; 10 μM)","Mean value, radioactive glucosamine incorporated ([1]; 10 μM)","% relative to control, glucosamine incorporation ([1]; 100 μM)","Mean value, radioactive glucosamine incorporated ([1]; 100 μM)",incorporation of radioactive glucosamine ([1]; concentration of 1 μM),incorporation of radioactive glucosamine ([1]; concentration of 10 μM),incorporation of radioactive glucosamine ([1]; concentration of 100 μM),GLUT-1 expression vs 100% control (GLUT-1; Reference 2 mM metformine),GLUT-1 expression vs 100% control (GLUT-1; compound at 10 μM),expression of the GLUT-1 protein (GLUT-1),"% relative to control, glucosamine incorporation ([1]; 54 μM)","Mean value, radioactive glucosamine incorporated ([1]; 54 μM)",incorporation of radioactive glucosamine ([1]; concentration of 300 μM)
"O=[N+]([O-])c1ccc(O[C@@H]2OC[C@@H](O)[C@H](O)[C@H]2O)cc1 [4-nitrophenyl β-D-xylopyranoside, 4-nitrophenyl-B-D-xylopyranoside, reference compound]",207%,31280 cpm,–,–,–,–,–,–,–,–,–,–,–,–,–,–,–
CNC(=O)C(O)C1O[C@H](CO)[C@H](O)[C@H](O)[C@H]1O (stereo partly shown) [Compound 17],108%,14498 cpm,129%,17387 cpm,123%,16614 cpm,132%,17861 cpm,stimulates the incorporation of radioactive glucosamine,stimulates the incorporation of radioactive glucosamine,stimulates the incorporation of radioactive glucosamine,–,–,–,–,–,–
"CN(C)C(=N)N=C(N)N [metformine, reference compound]",–,–,–,–,–,–,–,–,–,–,–,252% (p < 0.01) and 296% (p < 0.001),–,–,–,–,–
CCCCCCCCCCCCCCNC(=O)C(O)C1O[C@H](CO)[C@@H](O)[C@H](O)[C@H]1O (stereo partly shown) [Compound 4],–,–,–,–,–,–,–,–,–,–,–,–,142% (p < 0.01),very significantly stimulated,–,–,–
"Cc1cc(=O)oc2cc(O[C@@H]3OC[C@@H](O)[C@H](O)[C@H]3O)ccc12 [4-methylumbelliferyl-β-D-xylopyranoside, 4-methylumbelliferyl-B-D-xylopyranoside, reference compound]",–,–,–,–,–,–,–,–,–,–,–,–,–,–,213%,32202 cpm,–
CNC(=O)C(O)C1OC[C@@H](O)[C@H](O)[C@H]1O (stereo partly shown) [Compound 5],116%,15495 cpm,134%,17792 cpm,121%,16133 cpm,119%,15835 cpm,stimulate the incorporation of radioactive glucosamine,–,–,–,–,–,–,–,–
CNC(=O)C(O)C1O[C@H](CO)[C@@H](OC2O[C@H](CO)[C@H](O)[C@H](O)[C@H]2O)[C@H](O)[C@H]1O (stereo partly shown) [Compound 21],134%,17429 cpm,142%,18416 cpm,136%,17611 cpm,137%,17796 cpm,stimulates the incorporation of radioactive glucosamine,stimulates the incorporation of radioactive glucosamine,–,–,–,–,–,–,stimulates the incorporation of radioactive glucosamine
CNC(=O)C(O)C1O[C@H](CO)[C@@H](O)[C@H](O)[C@@H]1O (stereo partly shown) [Compound 13],139%,18804 cpm,119%,16090 cpm,129%,17340 cpm,134%,18139 cpm,–,stimulate the incorporation of radioactive glucosamine,–,–,–,–,–,–,–
CNC(=O)C(O)C1O[C@H](CO)[C@@H](O)[C@H](O)[C@H]1O (stereo partly shown) [Compound 1],97%,16850 cpm,125%,21591 cpm,117%,20216 cpm,118%,20451 cpm,stimulate the incorporation of radioactive glucosamine,–,–,–,159% (p < 0.05),very significantly stimulated,–,–,–
CCCNC(=O)C(O)C1O[C@H](CO)[C@@H](O)[C@H](O)[C@H]1O (stereo partly shown) [Compound 2],127%,16929 cpm,110%,14638 cpm,126%,16779 cpm,123%,16435 cpm,–,stimulate the incorporation of radioactive glucosamine,–,–,–,–,–,–,–
CNC(=O)C(O)C1O[C@@H](C)[C@H](O)[C@@H](O)[C@H]1O (stereo partly shown) [Compound 9],169%,22845 cpm,120%,16162 cpm,114%,15439 cpm,131%,17655 cpm,–,–,–,–,–,–,–,–,stimulates the incorporation of radioactive glucosamine
